Consider 29 compounds from PubChem BioAssay (NCI).

“And” between values parts separate entries of the source, which are not always exact repeats. Identical values can stand only once.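 In this assay, cells in 96-well plates receive the compound at five concentrations for 48 hours. Endpoints are linearly interpolated between the surrounding concentrations. The concentration for 50% growth inhibition is given as GI50. TGI is the concentration that stops growth completely.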 Bounds are passed on as bounds.

Holding throughout (test): NCI tumour cell line growth inhibition, 48 h
In experiment [1] the test system is SW-620 colon.
The subject of experiment [2] is NCI-H522 lung.
Experiment [3] deals with KM12 colon.
Experiment [4] deals with SF-268 CNS.
Experiment [5] deals with RPMI-8226 leukemia.
The test system of experiment [6] is NCI-H23 lung.
Experiment [7] has as its system CCRF-CEM leukemia.
The subject of experiment [8] is BT-549 breast.
Experiment [9] deals with HOP-92 NSCLC.
Experiment [10] deals with EKVX NSCLC.

As for `COc1ccc(C2SCC(=O)N2N=C2NC(=O)CC(=O)N2)cc1` (configuration not stated), the TGI in experiment [1], in experiment [2], in experiment [3], in experiment [4], in [5] and in experiment [6] was above 100 µM in each case. Also, the TGI in experiment [7], in experiment [8] and in [9] was above 100 µM each time.

For the compound `Cc1ncc([N+](=O)[O-])n1CCN(C)CCCCn1ccnc1[N+](=O)[O-]`, the TGI in experiment [1], in experiment [3], in experiment [4], in experiment [5], in [10] and in experiment [6] was above 100 µM each time. Moreover, the TGI in experiment [7] and in experiment [8] was above 100 µM throughout.

Regarding `c1cnc2c(c1)-n1cccc1C1(CCOCC1)NN2`, the TGI in experiment [1], in [2], in experiment [3], in [4], in [5] and in experiment [10] was above 100 µM throughout. Further, the TGI in experiment [6], in experiment [7] and in [9] was above 100 µM throughout.

For `O=C(NCc1cn(Cc2cccc(Oc3ccccc3)c2)nn1)c1cccnc1Nc1ccccc1`, the GI50 in experiment [1] was 3.97 µM; in [2] it was 2.11 µM; in experiment [3], 3.63 µM; in [4], 3.22 µM; in experiment [5] it was 3.61 µM; in [10] it was 5.18 µM. Also, the GI50 in experiment [6] is 3.73 µM; in experiment [7], 3.34 µM; in experiment [8], 2.8 µM. Also, the TGI in experiment [1] is above 100 µM; in experiment [2], 5.06 µM; in experiment [3], 46.4 µM; in experiment [4] it was 37.5 µM; in experiment [5] it was above 100 µM; in [10], above 100 µM. Further, the results for the TGI in experiment [6], in experiment [7] and in experiment [8] were above 100 µM, above 100 µM and 8.53 µM, respectively.

In the case of `CN1CC(c2ccccc2)=Cc2c1ccc(N)c2N=N`, the TGI in experiment [1], in experiment [2], in [3], in [4], in [5] and in experiment [10] was above 100 µM in each case. Further, the TGI in experiment [6], in experiment [7] and in [8] was above 100 µM in each case.

As to `CC(C)(C)C1CC[C@H]2c3c([nH]c4ccc(Br)cc34)[C@H]3C(=O)N(c4ccccc4)C(=O)[C@H]3[C@H]2C1` (some centres not stated), the TGI in experiment [1] was above 100 µM; in experiment [2], 69.3 µM; in experiment [3] it was above 100 µM; in [4], 95.1 µM; in [5], above 100 µM; in [10], above 100 µM. Besides, the TGI in experiment [6] was above 100 µM; in experiment [7] it was 20.1 µM; in [9], 78.7 µM.

In the case of `Oc1c(Cl)c2nccnc2c2ccccc12`, the TGI in experiment [1], in experiment [2], in [3], in experiment [4], in experiment [5] and in experiment [10] was above 100 µM in each case. Also, the TGI in experiment [6], in experiment [7] and in [9] was above 100 µM each time.

As to `CS(=O)(=O)NNS(=O)(=O)c1ccc(Br)cc1`, the TGI in [1], in experiment [2], in experiment [4], in experiment [5], in experiment [10] and in [6] was above 100 µM in each case. In addition, the TGI in experiment [7] and in [9] was above 100 µM each time.

Consider `N#Cc1[nH]c(=O)n(-c2ccc([N+](=O)[O-])cc2)c1N`, for which the TGI in experiment [1], in experiment [2], in experiment [4], in experiment [5], in experiment [10] and in [6] was above 10 µM each time. The TGI in experiment [7] and in [9] was above 10 µM throughout.

In the case of `CCOC(=O)NNC(=O)NCCNC(=O)NNC(=O)OCC`, the TGI in experiment [1], in experiment [2], in experiment [3], in experiment [4], in experiment [5] and in [10] was above 100 µM in each case. Moreover, the TGI in [6], in [7] and in experiment [8] was above 100 µM in each case.

Regarding `CC12CC3c4ccccc4CN1C3(c1ccccc1)OC2=O` (configuration not stated), the TGI in [1], in [2], in experiment [3], in [4], in experiment [10] and in experiment [6] was above 100 µM in each case. The TGI in experiment [7] and in [8] was above 100 µM each time.

In the case of `COc1ccc(-c2nc3ncccn3c2-c2ccc(S(C)=O)cc2)cc1` (configuration not stated), the TGI in experiment [1], in [3], in experiment [4], in experiment [5], in [6] and in experiment [7] was above 100 µM in each case. Moreover, the TGI in experiment [8] and in [9] was above 100 µM in each case.

As to `c1ccc2[nH]c(-c3nc4ccccc4o3)nc2c1`, the TGI in experiment [2], in experiment [3], in experiment [4], in experiment [5], in [10] and in [6] was above 100 µM in each case. For the same compound, the TGI in experiment [7] and in [9] was above 100 µM each time.

Take `O=[N+]([O-])/C(C(Cl)=C(Cl)Cl)=C1\Nc2ccccc2O1`: the TGI in experiment [1] was above 100 µM; in experiment [2], 63.8 µM; in experiment [3], above 100 µM; in [4] it was above 100 µM; in [5], 75.6 µM; in experiment [10] it was above 100 µM. The TGI is above 100 µM in experiment [6], 38.7 µM in experiment [7] and 62.4 µM in [9].

Take `CC(C)CN1CN(c2ccccc2)C2(CCN(CC(C)(c3ccc(F)cc3)C3OCCO3)CC2)C1=O` (configuration not stated): the TGI in experiment [1] turned out to be 17.5 µM; in experiment [2] it was 12.7 µM; in experiment [3], 15.6 µM; in experiment [4], 30.1 µM; in experiment [10], 19.8 µM; in experiment [6] it was 8.69 µM. Moreover, the TGI amounted to 18.1 µM in experiment [7] and 20.9 µM in experiment [8].

Take `O=C(CCN1CCCCC1CCO)Nc1ccc2c(c1)C(=O)c1ccc(NC(=O)CCN3CCCCC3CCO)cc1C2=O` (configuration not stated): the TGI in experiment [1] worked out at 9.88 µM; in [2], 5.32 µM; in experiment [3], 9.87 µM; in experiment [4] it was 25.4 µM; in [5] it was 31.8 µM; in [10], 27 µM. Also, the results for the TGI in [6], in experiment [7] and in [9] were 40.3 µM, above 100 µM and 31 µM, respectively.

Take `N#Cc1c(-c2ccco2)c2c(n(C3OC(CO)C(O)C(O)C3O)c1=S)CCCC2` (configuration not stated): the TGI in experiment [2], in [3], in experiment [4], in experiment [10], in experiment [6] and in [7] was above 100 µM throughout. The same compound came in with a TGI in [9] above 100 µM.

Consider `COc1ccc(NC(=S)NN=C(C)c2cccc(C(C)=NNC(=S)Nc3ccc(OC)cc3)n2)cc1`, for which the TGI was above 100 µM in experiment [1]; above 100 µM in experiment [2]; 84.2 µM in experiment [3]; above 100 µM in experiment [4]; above 100 µM in [5]; above 100 µM in experiment [10]. Further, the TGI in [6], in [7] and in experiment [9] was above 100 µM each time.

For the compound `[N-]=N[N+]#I1OC(C(F)(F)F)(C(F)(F)F)c2ccccc21`, the TGI in experiment [1] turned out to be 40 µM; in [2], 30.5 µM; in experiment [3], 29 µM; in experiment [4], 27.9 µM; in [5] it was 51.8 µM; in [10], 34 µM. In addition, the values for the TGI in [6], in experiment [7] and in [9] were 36.8 µM, 47.2 µM and 27 µM, respectively.

On to `CSc1nc2c(c(N(C)C)n1)C=Nn1c(nc3ccccc31)S2`, for which the TGI in [1], in [2], in experiment [3], in experiment [4], in experiment [5] and in experiment [6] was above 100 µM each time. Besides, the TGI in experiment [8] was above 100 µM; in [9], 89.4 µM.

As to `COc1c2cc(C(C)(C)C)cc1CSCc1cc(C(C)(C)C)cc(c1OC)CCCCC2`, the TGI in [1], in experiment [3], in [4], in [6], in experiment [7] and in experiment [8] was above 50 µM throughout.

For `C=C1CC2CC[C@@]34C[C@@H]5O[C@@H]6C(O[C@H]7CC[C@H](CC(=O)OC8[C@@H](C)C9OC%10C[C@]%11(C[C@@H]%12O[C@@]%13(C[C@@H](C)[C@@H]%12O%11)C[C@H](C)[C@@H]%11OC%12CC(C(O)CO)OC%12C[C@@H]%11O%13)OC%10CC9O[C@H]8C[C@H]8O[C@@H](CC[C@@H]1O2)C[C@@H](C)C8=C)O[C@@H]7[C@@H]6O3)C5O4` (some centres not stated), the GI50 in [1], in experiment [2], in experiment [3], in experiment [4], in experiment [5] and in [10] was below 0.000148 µM in each case. Also, the GI50 in experiment [6], in experiment [7] and in experiment [9] was below 0.000148 µM in each case. In addition, the TGI in experiment [1] is above 1.48 µM; in experiment [2], 0.000594 µM and < 0.000148 µM; in experiment [4], above 1.48 µM; in [5], above 1.48 µM; in [10], above 1.48 µM; in [6], 0.0068 µM and 0.00198 µM. In experiment [9], this compound showed a TGI above 1.48 µM.

Consider `Nc1c(Br)cc(-c2cc(Br)c(N)c(Br)c2)cc1Br`, for which the TGI in experiment [1], in [2], in [3], in experiment [4], in experiment [5] and in experiment [10] was above 100 µM each time. For the same compound, the TGI in [6], in experiment [7] and in [9] was above 100 µM throughout.

`On1c(-c2ccccc2)c(-c2c(-c3ccccc3)n(O)c3ccccc23)c2ccccc21`: the TGI in experiment [2] is 52.3 µM; in [3], above 100 µM; in experiment [4], above 100 µM; in experiment [6] it was 90.1 µM; in experiment [7] it was above 100 µM.

As for `Cc1c(C)c(C)c(-n2c(=O)n(C)c(=O)n2C(C)(C)C)c(C)c1C`, the TGI in [1], in experiment [3], in [4], in experiment [5], in [6] and in experiment [7] was above 100 µM each time. The TGI in experiment [8] and in experiment [9] was above 100 µM in each case.

In the case of `CN(C)[C@@H]1C(=O)C(C(N)=O)=C(O)[C@@]2(O)C(=O)C3=C(O)c4c(O)cccc4C[C@H]3C[C@@H]12`, the TGI in experiment [1] was 9.84 µM; in experiment [2], 4.29 µM; in experiment [3], 6.54 µM; in [4], 3.23 µM; in experiment [6], 4.27 µM; in experiment [7], 5.65 µM. In experiment [9], the TGI was 5.19 µM.

`COC(=O)/C(=C/c1ccc(OC)cc1)C(C(=O)O)=C(C)C`: the TGI in experiment [1], in [2], in [3], in experiment [4], in experiment [5] and in experiment [10] was above 100 µM each time. Besides, the TGI in experiment [6], in experiment [7] and in experiment [9] was above 100 µM in each case.

In the case of `COc1cc2c(cc1O)[C@H](C)C(c1ccc(Cl)cc1)O2` (some centres not stated), the TGI in experiment [1] stood at 38 µM; in experiment [2], 27.3 µM; in experiment [3], 62.1 µM; in [4] it was 72.6 µM; in experiment [5] it was 25.6 µM; in [10] it was 92.3 µM. For the same compound, the TGI in [6] turned out to be 70.8 µM; in experiment [7], 39 µM; in experiment [9] it was 40.4 µM.

For `C=CCN1C(=O)CS/C1=N\NC(=O)c1c(C)nc2sccn12`, the TGI in experiment [1], in experiment [2], in experiment [3], in experiment [4], in [5] and in experiment [10] was above 100 µM each time. For the same compound, the TGI in experiment [6], in experiment [7] and in experiment [9] was above 100 µM throughout.
